The source made the active and inactive calls. Where a SMILES comes first, the peptide text is derived from it. [ ]: non-standard residue; d: D form. The star is where a group is joined. ξ: configuration not given here. ξNMe2Val = CC(C)C(C(=O)*)N(C)C; NMeV = CN[CH](C(=O)O)C(C)C; NHBn = c1ccc(CN*)cc1
Columns and labels:
Beta-galactosidase = Beta-galactosidase (Escherichia coli, UniProt Q8VNN2); assay: Dose response counterscreen for EBI2 assay utilizing the enzyme, b-galactosidase.; assay type: functional
[1] = human group III sPLA2 inhibitors, dose response, biochemical, QFRET, IC50 (AID 743457);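 note: green fluorescence rise as the enzyme cleaves BODIPY PC-A2 in liposomes; potency for inhibition of the enzyme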
Caspase-6 = target: T1, Caspase-6 (Homo sapiens, UniProt P55212); assay: human caspase-6 inhibitors, dose response, biochemical, VEID-R110 fluorescence, cherry-pick (AID 720632)
T1 sequence (P55212 whole entry): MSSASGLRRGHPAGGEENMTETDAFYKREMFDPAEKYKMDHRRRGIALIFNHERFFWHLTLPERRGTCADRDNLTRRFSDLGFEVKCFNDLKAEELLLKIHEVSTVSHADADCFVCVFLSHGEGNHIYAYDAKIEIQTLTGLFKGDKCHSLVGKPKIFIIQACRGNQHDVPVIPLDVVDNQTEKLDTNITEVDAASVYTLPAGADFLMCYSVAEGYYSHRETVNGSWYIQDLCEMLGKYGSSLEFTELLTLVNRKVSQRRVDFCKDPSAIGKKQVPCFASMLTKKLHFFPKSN

cells = assay type: functional, cell-based
[2] = target: T2, Nuclear receptor subfamily 0 group B member 1 (Homo sapiens, UniProt P51843); assay type: functional, cell-based;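 note: HEK293T cells transfected with SF-1 and DAX-1 plus StAR promoter luciferase reporter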
T2 sequence (P51843 whole entry): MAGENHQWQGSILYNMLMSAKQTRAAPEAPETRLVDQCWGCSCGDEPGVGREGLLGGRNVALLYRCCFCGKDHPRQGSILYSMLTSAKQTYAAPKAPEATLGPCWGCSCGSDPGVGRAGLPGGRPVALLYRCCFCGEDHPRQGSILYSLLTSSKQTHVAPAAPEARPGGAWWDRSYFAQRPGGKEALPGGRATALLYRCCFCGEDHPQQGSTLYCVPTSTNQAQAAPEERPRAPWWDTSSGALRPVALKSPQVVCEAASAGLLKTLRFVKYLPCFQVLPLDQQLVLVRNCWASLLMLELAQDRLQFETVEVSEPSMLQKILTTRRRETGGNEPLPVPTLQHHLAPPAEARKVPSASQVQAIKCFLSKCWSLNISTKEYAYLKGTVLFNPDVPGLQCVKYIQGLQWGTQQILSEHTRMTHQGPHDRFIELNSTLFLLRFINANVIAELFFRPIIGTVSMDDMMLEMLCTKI

[3] = target: FAD-linked sulfhydryl oxidase ALR (Homo sapiens, UniProt P55789); assay: inhibitors of human ALR sulfhydryl oxidase, dose response, biochemical, H2O2 detection, luminescence, cherry-pick (AID 493248)
Genome polyprotein = Genome polyprotein (dengue virus type 2, UniProt P29990); assay: Dengue-2 NS5 methyltransferase inhibitors, primary screen, biochemical, confirmation dose response (AID 588689); assay type: functional
[4] = target: T3, Long-chain-fatty-acid--AMP ligase FadD28 (Mycobacterium tuberculosis, UniProt P9WQ59); assay: Fluorescence polarization aasay to screen for inhibitors that compete for the binding of FadD28 to a bisubstrate Measured in Biochemical System Using Plate Reader - 2147-01_Inhibitor_Dose_CherryPick_Activity.; assay type: functional, Mycobacterium tuberculosis H37Rv
T3 sequence (P9WQ59 whole entry): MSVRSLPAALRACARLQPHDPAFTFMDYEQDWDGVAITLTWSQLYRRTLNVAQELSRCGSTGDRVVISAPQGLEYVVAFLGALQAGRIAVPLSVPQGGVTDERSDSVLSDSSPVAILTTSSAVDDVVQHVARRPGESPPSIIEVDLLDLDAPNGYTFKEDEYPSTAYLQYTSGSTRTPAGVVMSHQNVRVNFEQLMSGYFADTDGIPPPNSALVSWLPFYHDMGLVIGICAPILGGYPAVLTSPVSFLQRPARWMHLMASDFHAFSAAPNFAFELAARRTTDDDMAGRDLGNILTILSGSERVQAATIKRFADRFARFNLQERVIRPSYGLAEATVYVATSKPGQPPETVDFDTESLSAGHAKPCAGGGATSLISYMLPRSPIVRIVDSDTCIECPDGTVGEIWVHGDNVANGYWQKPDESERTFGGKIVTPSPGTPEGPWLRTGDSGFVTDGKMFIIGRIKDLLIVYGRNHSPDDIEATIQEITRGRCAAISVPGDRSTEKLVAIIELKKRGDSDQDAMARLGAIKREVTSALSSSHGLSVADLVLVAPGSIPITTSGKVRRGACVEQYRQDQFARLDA

[5] = ADAM10 inhibitors, peptide cleavage, dose response, biochemical, QFRET (AID 743254);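 note: ADAM10 enzyme with the DM2 quenched FRET peptide as substrate; EDANS fluorescence gain as the protease cuts the substrate; inhibitor potency against ADAM10 proteolytic activity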
[6] = target: T4, Disintegrin and metalloproteinase domain-containing protein 17 (Homo sapiens, UniProt P78536); assay: exosite inhibitors of ADAM17, dose response, biochemical (AID 743260)
[7] = ADAM10 protease inhibitors, dose response, selectivity assay for ADAM17 exosite inhibitor project, biochemical, FRET peptide substrate, recombinant human ADAM10 (AID 743259);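 note: ADAM10 enzyme cleaving a FRET peptide substrate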
[8] = target: T4, Disintegrin and metalloproteinase domain-containing protein 17; assay: ADAM17 protease inhibitors, dose response, counter-screen for ADAM10 exosite inhibitor project, biochemical, quenched FRET substrate (AID 743253)
[9] = ZM109 Env clade C HIV-1 fusion inhibitors, dose response, HeLa effector, CEM target cells, luciferase, cherry-pick (AID 652058); assay type: functional, cell-based
[10] = inhibitors of clade B AD8 Env fusion, dose response, cell-based, cherry-pick (AID 652062); assay type: functional;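 note: luciferase signal from cell-cell fusion driven by HIV-1 clade B AD8 Env; potency is for inhibitors of fusion seen as a drop in luminescence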
[11] = inhibitors of HIV Env-driven cell fusion, dose response, cherry-pick (AID 652057); assay type: functional, cell-based
[12] = HEp-2 cell cytotoxicity, dose response, cytotoxicity control for RSV inhibitor project, HTS (AID 2410); assay type: functional; details: human respiratory syncytial virus
[13] = tested on: Streptococcus sp. 'group A'; assay: growth inhibition of control SK(-) GAS strain, dose response, counter-screen for streptokinase expression inhibitor project, luminescence, kanamycin, BacTiterGlo, confirmation (AID 1900); assay type: functional, organism-based
Streptokinase A = target: T5, Streptokinase A (Streptococcus pyogenes serotype M1, UniProt P10520); assay: S. pyogenes streptokinase expression inhibitors, potency, dose response, plasminogen activation absorbance, OD405 (AID 1914); assay type: functional, Streptococcus pyogenes M1 GAS;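 note: secreted streptokinase activity via plasminogen activation per viability signal from cell pellet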
T5 sequence (P10520 whole entry): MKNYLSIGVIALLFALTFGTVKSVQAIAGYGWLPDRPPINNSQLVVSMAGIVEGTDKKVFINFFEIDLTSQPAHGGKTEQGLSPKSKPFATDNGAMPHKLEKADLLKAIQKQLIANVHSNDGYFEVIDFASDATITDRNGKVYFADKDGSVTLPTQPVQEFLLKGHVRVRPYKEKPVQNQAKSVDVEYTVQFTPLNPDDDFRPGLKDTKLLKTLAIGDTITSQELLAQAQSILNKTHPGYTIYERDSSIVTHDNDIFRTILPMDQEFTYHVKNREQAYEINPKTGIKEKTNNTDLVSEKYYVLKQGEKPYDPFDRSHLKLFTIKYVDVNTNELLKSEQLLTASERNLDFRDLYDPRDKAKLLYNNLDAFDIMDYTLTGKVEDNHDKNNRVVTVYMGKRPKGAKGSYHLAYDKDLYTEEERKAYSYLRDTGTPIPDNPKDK

Streptococcus = assay: Group A Streptococcus viability loss, dose response, counter-screen for streptokinase expression inhibitor project, luminescence, BacTiterGlo (AID 1915); assay type: functional, organism-based;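 note: potency for reduction of bacterial viability or growth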
[14] = Luminescence Cell-Based Dose Retest to Confirm Inhibitors of Cancer Stem Cells. [Related pubchem assays (depositor defined):AID2717, AID2721]; assay type: functional; details: Homo sapiens
[15] = inhibitors of PGC1a acetylation in cells, dose response, cell-based, cherry-picked samples (AID 720514); assay type: functional;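 note: potency may reflect raised or lowered acetylation signal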
[16] = Counterscreen for inhibitors of Trypanosoma brucei methionyl tRNA synthetase (MetRS): Luminescence-based cell-based high throughput dose response assay to identify compounds that are cytotoxic to Jurkat human T lymphocyte cells.; assay type: functional
[17] = target: T6, Methionyl-tRNA synthetase, putative (Trypanosoma brucei brucei, UniProt Q38C91); assay type: functional, Trypanosoma brucei brucei strain 927/4 GUTat10.1
T6 sequence (Q38C91 whole entry): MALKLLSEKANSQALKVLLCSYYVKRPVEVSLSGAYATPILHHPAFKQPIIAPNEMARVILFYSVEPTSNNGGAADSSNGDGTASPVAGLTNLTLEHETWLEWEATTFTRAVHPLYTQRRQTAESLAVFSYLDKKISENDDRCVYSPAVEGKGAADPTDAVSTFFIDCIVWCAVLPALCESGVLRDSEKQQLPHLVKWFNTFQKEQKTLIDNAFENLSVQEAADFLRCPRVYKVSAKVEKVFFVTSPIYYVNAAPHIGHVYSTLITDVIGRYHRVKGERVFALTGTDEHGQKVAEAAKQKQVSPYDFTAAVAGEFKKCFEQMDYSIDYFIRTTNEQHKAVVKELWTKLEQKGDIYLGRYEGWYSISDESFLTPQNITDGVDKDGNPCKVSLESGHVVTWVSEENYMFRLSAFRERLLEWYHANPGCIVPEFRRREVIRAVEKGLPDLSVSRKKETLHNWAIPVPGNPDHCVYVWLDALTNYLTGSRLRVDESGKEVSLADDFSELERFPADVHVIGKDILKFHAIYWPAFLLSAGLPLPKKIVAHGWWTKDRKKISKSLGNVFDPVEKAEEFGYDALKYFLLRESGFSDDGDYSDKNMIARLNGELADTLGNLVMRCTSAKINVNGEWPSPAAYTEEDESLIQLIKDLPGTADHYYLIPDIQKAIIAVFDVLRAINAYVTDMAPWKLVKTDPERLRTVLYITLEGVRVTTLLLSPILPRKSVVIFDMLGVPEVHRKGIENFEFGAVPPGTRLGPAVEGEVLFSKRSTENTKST

[18] = P. falciparum 3D7-ScDHODH growth inhibitors, dose response, SYBR Green, dry powder samples (AID 1159570); assay type: functional, cell-based;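 note: parasite growth measured after 72 hours of compound exposure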
[19] = HepG2 cell cytotoxicity, dose response, cytotoxicity control, plate reader, dry powder samples (AID 1159569); assay type: functional, cell-based;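 note: inhibitor potency with signal falling toward the positive control level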
[20] = P. falciparum Dd2 growth inhibitors, dose response, SYBR Green, cherry-picked samples (AID 1159567); assay type: functional, cell-based
[21] = P. falciparum Dd2 growth inhibitors, dose response, SYBR Green, dry powder samples (AID 1159566); assay type: functional, cell-based;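 note: potency for growth inhibition with lower SYBR green DNA signal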
[22] = P. falciparum ATP4 D1247Y mutant growth inhibitors, dose response, NITD609-resistant line, SYBR Green, dry powder (AID 1159571); assay type: functional, cell-based;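 note: parasites synchronized at ring stage by sorbitol before testing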
[23] = HeLa 2N DNA content increase, dose response, cell-based, IC50 (AID 1117349); assay type: functional
[24] = HeLa 4N DNA content increase, dose response, cell-based, IC50 (AID 1117351); assay type: functional

Sequence of Beta-galactosidase (Q8VNN2 whole entry): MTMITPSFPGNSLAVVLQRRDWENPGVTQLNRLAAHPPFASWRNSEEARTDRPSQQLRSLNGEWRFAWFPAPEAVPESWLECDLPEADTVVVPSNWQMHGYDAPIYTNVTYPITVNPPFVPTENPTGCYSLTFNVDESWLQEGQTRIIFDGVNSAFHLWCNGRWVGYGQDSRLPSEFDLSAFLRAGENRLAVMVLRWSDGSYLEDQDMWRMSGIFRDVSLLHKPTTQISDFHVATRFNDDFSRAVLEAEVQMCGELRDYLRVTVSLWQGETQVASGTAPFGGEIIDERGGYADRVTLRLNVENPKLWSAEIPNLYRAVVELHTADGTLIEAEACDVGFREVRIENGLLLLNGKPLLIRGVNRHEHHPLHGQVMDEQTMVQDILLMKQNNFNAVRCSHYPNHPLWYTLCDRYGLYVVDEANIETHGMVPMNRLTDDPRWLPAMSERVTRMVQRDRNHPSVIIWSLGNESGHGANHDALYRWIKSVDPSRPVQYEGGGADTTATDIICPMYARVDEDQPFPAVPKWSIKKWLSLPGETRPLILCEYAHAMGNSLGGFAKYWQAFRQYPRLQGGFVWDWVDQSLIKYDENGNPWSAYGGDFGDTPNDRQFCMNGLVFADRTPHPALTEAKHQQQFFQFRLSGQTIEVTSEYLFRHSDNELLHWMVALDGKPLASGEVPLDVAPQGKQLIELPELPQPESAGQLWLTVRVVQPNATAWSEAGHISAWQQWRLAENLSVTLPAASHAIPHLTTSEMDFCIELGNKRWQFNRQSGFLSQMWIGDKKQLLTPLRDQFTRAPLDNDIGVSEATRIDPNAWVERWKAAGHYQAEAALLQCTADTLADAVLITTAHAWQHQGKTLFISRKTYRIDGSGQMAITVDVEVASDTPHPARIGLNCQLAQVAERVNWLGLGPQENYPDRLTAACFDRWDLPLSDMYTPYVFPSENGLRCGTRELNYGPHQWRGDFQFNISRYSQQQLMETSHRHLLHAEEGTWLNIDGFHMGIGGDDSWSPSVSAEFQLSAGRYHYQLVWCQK
Sequence of FAD-linked sulfhydryl oxidase ALR (P55789 whole entry): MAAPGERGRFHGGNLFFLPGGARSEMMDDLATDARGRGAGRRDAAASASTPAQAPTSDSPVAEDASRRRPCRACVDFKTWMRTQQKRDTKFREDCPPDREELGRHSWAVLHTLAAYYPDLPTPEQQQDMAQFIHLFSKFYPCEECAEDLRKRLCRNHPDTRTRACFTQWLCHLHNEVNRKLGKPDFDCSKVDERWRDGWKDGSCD
T4 sequence (P78536 whole entry, the tested form may be a part): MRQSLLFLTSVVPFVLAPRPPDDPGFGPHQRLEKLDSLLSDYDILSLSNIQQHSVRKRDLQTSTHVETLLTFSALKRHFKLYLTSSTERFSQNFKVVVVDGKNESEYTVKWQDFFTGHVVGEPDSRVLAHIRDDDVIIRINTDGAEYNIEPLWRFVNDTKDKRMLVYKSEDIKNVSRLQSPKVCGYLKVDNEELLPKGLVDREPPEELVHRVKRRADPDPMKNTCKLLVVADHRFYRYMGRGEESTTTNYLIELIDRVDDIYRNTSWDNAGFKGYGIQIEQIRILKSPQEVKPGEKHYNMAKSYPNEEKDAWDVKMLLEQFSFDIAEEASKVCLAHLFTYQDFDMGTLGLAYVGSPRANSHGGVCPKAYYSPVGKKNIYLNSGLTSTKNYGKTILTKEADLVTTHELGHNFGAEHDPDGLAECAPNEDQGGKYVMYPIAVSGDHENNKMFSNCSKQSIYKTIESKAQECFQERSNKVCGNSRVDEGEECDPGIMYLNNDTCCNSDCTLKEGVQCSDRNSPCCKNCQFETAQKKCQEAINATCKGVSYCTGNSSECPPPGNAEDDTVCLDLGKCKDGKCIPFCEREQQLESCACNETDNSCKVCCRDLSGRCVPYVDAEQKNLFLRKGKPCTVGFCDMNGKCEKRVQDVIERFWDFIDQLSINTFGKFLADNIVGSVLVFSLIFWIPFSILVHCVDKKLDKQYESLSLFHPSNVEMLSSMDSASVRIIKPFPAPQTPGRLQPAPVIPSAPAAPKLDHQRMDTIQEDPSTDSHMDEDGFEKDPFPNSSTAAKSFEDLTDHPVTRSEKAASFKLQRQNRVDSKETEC
Sequence of Genome polyprotein (P29990 2492-3391 limits assumed): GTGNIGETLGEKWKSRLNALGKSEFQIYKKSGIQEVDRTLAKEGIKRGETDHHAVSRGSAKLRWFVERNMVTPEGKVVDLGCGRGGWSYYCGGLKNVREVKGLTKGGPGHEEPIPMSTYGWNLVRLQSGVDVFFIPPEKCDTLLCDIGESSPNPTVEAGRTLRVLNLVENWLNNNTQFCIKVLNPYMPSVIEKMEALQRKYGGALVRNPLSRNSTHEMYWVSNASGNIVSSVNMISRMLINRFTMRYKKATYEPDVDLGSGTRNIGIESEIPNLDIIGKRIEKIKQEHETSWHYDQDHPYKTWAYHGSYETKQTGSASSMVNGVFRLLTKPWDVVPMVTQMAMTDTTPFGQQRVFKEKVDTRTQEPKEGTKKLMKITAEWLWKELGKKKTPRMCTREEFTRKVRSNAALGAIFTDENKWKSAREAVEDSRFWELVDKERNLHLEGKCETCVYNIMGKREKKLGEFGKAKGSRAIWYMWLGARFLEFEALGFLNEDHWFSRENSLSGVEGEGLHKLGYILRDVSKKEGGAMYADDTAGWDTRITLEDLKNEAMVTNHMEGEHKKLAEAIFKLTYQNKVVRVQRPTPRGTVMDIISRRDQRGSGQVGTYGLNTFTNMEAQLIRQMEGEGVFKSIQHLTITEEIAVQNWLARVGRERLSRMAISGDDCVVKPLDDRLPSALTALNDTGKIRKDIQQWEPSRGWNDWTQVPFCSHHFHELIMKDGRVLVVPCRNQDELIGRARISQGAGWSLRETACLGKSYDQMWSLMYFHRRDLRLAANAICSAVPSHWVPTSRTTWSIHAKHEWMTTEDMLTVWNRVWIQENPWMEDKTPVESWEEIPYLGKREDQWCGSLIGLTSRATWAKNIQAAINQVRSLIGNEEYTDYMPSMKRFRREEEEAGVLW

O=S(=O)(c1ccc(Cl)cc1)N1CCN(Cc2nc(O)c3ccc(Cl)cc3n2)CC1
IC50 (Beta-galactosidase): > 80 µM (inactive)

O=C(CNc1ccc(Cl)cc1)NNC(=S)NCc1ccccc1
IC50 [1]: > 122 µM (inactive)

O=C(CCc1nc(O)c2c3c(sc2n1)CCCC3)NCC(=O)Nc1ccccc1Br
AC50 (Caspase-6): 26.8 µM (active)

Cc1c(Cl)c(C(=O)NN=C(S)Nc2ccc(F)cc2)nn1C
IC50 [1]: > 122 µM (inactive)

CC(C)(C)OC(=O)N1CCC(C(=O)Nc2ccc3c(c2)CCC3)CC1
IC50 (cells): > 67.5 µM (inactive)
IC50 [2]: > 67.5 µM (inactive)

O=C1C=C(c2ccc3ncccc3c2)C[C@@H](c2ccc(Cl)cc2)C1
IC50 (Beta-galactosidase): > 80 µM (inactive)

O=C(O)c1ccc(Nc2nc3ccccc3nc2NS(=O)(=O)c2ccc(F)cc2)cc1
AC50 [3]: > 100 µM (inactive)
IC50 (Genome polyprotein): 24.9 µM (active)
AC50 [4]: 62.1 µM (active)

O=C(NO)c1ccc(OC(F)F)cc1
AC50 [3]: 4.38 µM (active)
IC50 [5]: 37 µM (inactive)
IC50 [6]: 29.5 µM (inactive)
IC50 [7]: 40.2 µM (inactive)
IC50 [8]: 36.5 µM (inactive)

CC(NC(=O)c1ccc2[nH]cnc2c1)c1ccccc1 (centres undefined)
AC50 [4]: 22.7 µM (active)

Cc1cc(Nc2cccc(C(F)(F)F)c2)cc(=O)n1-c1cccc(C(F)(F)F)c1
AC50 [9]: 1.85 µM (active)
AC50 [10]: 9.49 µM (active)

C[C@H](CO)N1C[C@H](C)[C@H](CN(C)S(=O)(=O)c2ccc(Cl)cc2)Oc2ccc(NC(=O)Nc3ccc4c(c3)OCO4)cc2C1=O
AC50 [11]: 2.11 µM (active)
AC50 [9]: 6.18 µM (active)
AC50 [10]: 13.7 µM (active)

CC(C)Nc1ncnc2c1ncn2[C@H]1CN(Cc2ccc(Cl)cc2)C[C@@H](CO)O1
IC50 (Beta-galactosidase): > 80 µM (inactive)

Oc1ccc(/C=N/Nc2nc(-c3ccc(Cl)cc3)cc(C(F)(F)F)n2)cc1
CC50 [12]: 13.4 µM (active)
EC50 [13]: 12.1 µM (active)
EC50 (Streptokinase A): 16.3 µM (active)
EC50 (Streptococcus): > 150 µM (not active)
AC50 [14]: 4.06 µM (active)
AC50 [15]: 31.7 µM (active)

COc1cc(OC)c(OC)cc1/C=N/Nc1nc2ccccc2[nH]1
IC50 [16]: 83.3 µM (inactive)
IC50 [17]: 119 µM (inactive)

Cc1ccc(S(=O)(=O)N2C[C@@H]3N[C@H](C2)[C@H]3c2ccc(-c3ccncc3)cc2)cc1
AC50 [18]: 1.26 µM (active)
AC50 [19]: 82.3 µM (active)
AC50 [20]: 1.37 µM (active)
AC50 [21]: 1.03 µM (active)
AC50 [22]: 1.67 µM (active)

CCCN(C)C[C@H]1Oc2ncc(C#Cc3ccc(F)cc3)cc2C(=O)N([C@@H](C)CO)C[C@H]1C
AC50 [18]: 2.14 µM (active)
AC50 [19]: 24.3 µM (active)
AC50 [20]: 2.37 µM (active)
AC50 [21]: 1.24 µM (active)
AC50 [22]: 1.23 µM (active)

CC(C)C(NC(=O)C(C(C)C)N(C)C)C(=O)N(C)C(C(=O)N1CCCC1C(=O)N1CCCC1C(=O)NCc1ccccc1)C(C)C (centres undefined) (ξNMe2Val-V[NMeV]PP-NHBn; configuration not given here)
IC50 (cells): > 67.5 µM (inactive)
IC50 [2]: > 67.5 µM (inactive)

Cc1ccc(Nc2nccc(N(C)c3ccc4c(C)n(C)nc4c3)n2)cc1S(N)(=O)=O [PAZOPANIB]
IC50 [23]: > 10 µM (inactive)
IC50 [24]: > 10 µM (inactive)

From ChEMBL document CHEMBL1201862, “PubChem BioAssay data set” (2004)
